Laboratory results from ChEMBL document CHEMBL1150055, “New Diol Esters Isolated from Cultures of the Dinoflagellates Prorocentrum lima and Prorocentrum concavum” (J Nat Prod, 1992).
Activity calls are given as the source filed them. No cut-off for these calls is given here.

Tests used:
[1] = Inhibition of PP1
[2] = Inhibition of PP2A

| Activity [1] | Activity [2] | Structure (SMILES) |
| --- | --- | --- |
| inactive | inactive | C=C1[C@@H](O)[C@@H]2O[C@]3(CC[C@H](/C=C/[C@@H](C)[C@@H]4CC(C)=C[C@@]5(O[C@H](C[C@@](C)(O)C(=O)OC/C(C)=C/C=C/CCO)CC[C@H]5O)O4)O3)CC[C@H]2O[C@@H]1[C@@H](O)C[C@H](C)[C@H]1O[C@@]2(CCCCO2)CC[C@H]1C |
| inactive | inactive | C=C1[C@@H](O)[C@@H]2O[C@]3(CC[C@H](/C=C/[C@@H](C)[C@@H]4CC(C)=C[C@@]5(O[C@H](C[C@@](C)(O)C(=O)OC/C(C)=C/C=C/CO)CC[C@H]5O)O4)O3)CC[C@H]2O[C@@H]1[C@@H](O)C[C@H](C)[C@H]1O[C@@]2(CCCCO2)CC[C@H]1C |
| inactive | inactive | C=C1[C@@H](O)[C@@H]2O[C@]3(CC[C@H](/C=C/[C@@H](C)[C@@H]4CC(C)=C[C@@]5(O[C@H](C[C@@](C)(O)C(=O)OC)CC[C@H]5O)O4)O3)CC[C@H]2O[C@@H]1[C@@H](O)C[C@H](C)[C@H]1O[C@@]2(CCCCO2)CC[C@H]1C |
